# Measurements: BindingDB's records for doi:10.1016/j.bmc.2019.115177 (National Centre For Scientific Research "Demokritos, 2019)
# Experiments:
# [1] = target: Insulin-regulated aminopeptidase (Homo sapiens); assay: Inhibition of human recombinant IRAP expressed in baculovirus infected Sf9 cells using omniMMP fluorogenic substrate incubated for 5 to 10 mins by fluorescence spectrophotometry analysis
# [2] = target: Insulin-regulated aminopeptidase (Homo sapiens); assay: Competitive inhibition of human recombinant IRAP expressed in baculovirus infected sf9 cells using L-AMC as substrate incubated for 5 to 10 mins by Michaelis-Menten analysis
smiles,measurement,setting,value
CCCC[C@H](N)C(=O)Nc1cc(C(=O)N[C@@H](Cc2c[nH]c3ccccc23)C(=O)OCc2ccccc2)ccn1,IC50,[1],8.8 µM
same,Ki,[2],4.6 µM
O=C(Cn1cccc(O)c1=O)N[C@@H](Cc1c[nH]c2ccccc12)C(=O)OCc1ccccc1,IC50,[1],10.9 µM
same,Ki,[2],5.7 µM
N[C@@H](CCc1ccccc1)C(=O)NNc1ccc(C(=O)N[C@@H](Cc2c[nH]c3ccccc23)C(=O)OCc2ccccc2)cc1,IC50,[1],2.5 µM
CCCC[C@H](N)C(=O)NNc1ccc(C(=O)N[C@@H](Cc2c[nH]c3ccccc23)C(=O)OCc2ccccc2)cc1,IC50,[1],2.5 µM
same,Ki,[2],1.3 µM
CC(C)[C@H](NC(=O)Cn1cccc(O)c1=O)C(=O)OCc1ccccc1,IC50,[1],33.6 µM
same,Ki,[2],17.6 µM
CCCC[C@H](N)C(=O)Nc1ccc(C(=O)N[C@@H](Cc2c[nH]c3ccccc23)C(=O)OCc2ccccc2)cc1,IC50,[1],> 10 µM
CCCC[C@H](N)C(=O)Nc1cccc(C(=O)N[C@@H](Cc2c[nH]c3ccccc23)C(=O)OCc2ccccc2)c1,IC50,[1],6.2 µM
same,Ki,[2],3.2 µM
CCCC[C@H](N)C(=O)NNc1cccc(C(=O)N[C@@H](Cc2c[nH]c3ccccc23)C(=O)OCc2ccccc2)c1,IC50,[1],7.2 µM
same,Ki,[2],3.8 µM
COc1cccn(CC(=O)NCCc2ccc(-c3ccccc3)cc2)c1=S,IC50,[1],16.7 µM
same,Ki,[2],8.7 µM
O=C(Cn1cccc(O)c1=O)NCCc1ccc(-c2ccccc2)cc1,IC50,[1],24.8 µM
same,Ki,[2],13 µM
